Test results: ChEMBL document CHEMBL1153203, “Proposed structural basis of interaction of piperine and related compounds with monoamine oxidases” (Bioorg Med Chem Lett, 2010)

What was measured:
[1] = biological target: T1, Amine oxidase [flavin-containing] A (Mus musculus, UniProt Q64133); assay: Inhibition of mouse brain MAOA
T1 sequence (Q64133 whole entry): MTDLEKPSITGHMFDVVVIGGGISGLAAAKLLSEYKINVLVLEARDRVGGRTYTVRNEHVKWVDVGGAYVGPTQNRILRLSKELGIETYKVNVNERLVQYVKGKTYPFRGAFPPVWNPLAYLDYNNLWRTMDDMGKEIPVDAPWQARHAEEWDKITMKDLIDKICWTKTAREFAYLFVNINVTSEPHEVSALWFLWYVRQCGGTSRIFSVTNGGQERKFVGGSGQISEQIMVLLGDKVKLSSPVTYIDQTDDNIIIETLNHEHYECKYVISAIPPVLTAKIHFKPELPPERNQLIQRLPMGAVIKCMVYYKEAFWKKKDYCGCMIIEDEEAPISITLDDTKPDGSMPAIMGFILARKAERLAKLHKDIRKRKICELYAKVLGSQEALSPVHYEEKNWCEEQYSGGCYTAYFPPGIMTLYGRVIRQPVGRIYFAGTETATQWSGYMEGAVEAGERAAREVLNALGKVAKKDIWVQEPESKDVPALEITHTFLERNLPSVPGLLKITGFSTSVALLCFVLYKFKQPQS

[2] = biological target: T2, Amine oxidase [flavin-containing] B (Mus musculus, UniProt Q8BW75); assay: Inhibition of mouse brain MAOB
T2 sequence (Q8BW75 whole entry): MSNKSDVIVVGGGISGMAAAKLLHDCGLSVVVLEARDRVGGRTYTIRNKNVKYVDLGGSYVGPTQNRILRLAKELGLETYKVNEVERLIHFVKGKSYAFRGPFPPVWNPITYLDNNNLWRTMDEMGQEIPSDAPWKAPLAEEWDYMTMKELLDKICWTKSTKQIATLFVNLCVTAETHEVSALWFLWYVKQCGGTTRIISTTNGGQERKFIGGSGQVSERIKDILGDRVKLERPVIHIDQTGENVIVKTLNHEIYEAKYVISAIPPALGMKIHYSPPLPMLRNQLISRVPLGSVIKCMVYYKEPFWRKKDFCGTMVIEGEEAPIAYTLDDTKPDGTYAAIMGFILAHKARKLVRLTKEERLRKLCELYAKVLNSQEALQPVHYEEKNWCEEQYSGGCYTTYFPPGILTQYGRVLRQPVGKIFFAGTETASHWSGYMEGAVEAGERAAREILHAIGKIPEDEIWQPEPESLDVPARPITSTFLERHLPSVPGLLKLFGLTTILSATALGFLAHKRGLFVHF

[3] = biological target: T3, Amine oxidase [flavin-containing] A (Rattus norvegicus, UniProt P21396); assay: Inhibition of MAOA in rat brain mitochondria
T3 sequence (P21396 whole entry): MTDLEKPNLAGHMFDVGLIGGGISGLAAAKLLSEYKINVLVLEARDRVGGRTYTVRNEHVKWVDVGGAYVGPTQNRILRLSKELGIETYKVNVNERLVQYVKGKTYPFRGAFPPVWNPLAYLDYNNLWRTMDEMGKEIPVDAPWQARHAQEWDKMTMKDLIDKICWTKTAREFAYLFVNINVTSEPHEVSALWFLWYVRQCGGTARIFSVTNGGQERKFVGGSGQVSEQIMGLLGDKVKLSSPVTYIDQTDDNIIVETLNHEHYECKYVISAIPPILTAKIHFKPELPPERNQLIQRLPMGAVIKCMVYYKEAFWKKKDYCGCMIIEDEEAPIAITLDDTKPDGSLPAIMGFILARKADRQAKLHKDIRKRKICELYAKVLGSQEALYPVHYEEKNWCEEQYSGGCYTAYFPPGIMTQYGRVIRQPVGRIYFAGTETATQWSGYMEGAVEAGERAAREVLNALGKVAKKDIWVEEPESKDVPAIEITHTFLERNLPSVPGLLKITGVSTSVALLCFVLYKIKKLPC

[4] = biological target: T4, Amine oxidase [flavin-containing] B (Rattus norvegicus, UniProt P19643); assay: Inhibition of MAOB in rat brain mitochondria
T4 sequence (P19643 whole entry): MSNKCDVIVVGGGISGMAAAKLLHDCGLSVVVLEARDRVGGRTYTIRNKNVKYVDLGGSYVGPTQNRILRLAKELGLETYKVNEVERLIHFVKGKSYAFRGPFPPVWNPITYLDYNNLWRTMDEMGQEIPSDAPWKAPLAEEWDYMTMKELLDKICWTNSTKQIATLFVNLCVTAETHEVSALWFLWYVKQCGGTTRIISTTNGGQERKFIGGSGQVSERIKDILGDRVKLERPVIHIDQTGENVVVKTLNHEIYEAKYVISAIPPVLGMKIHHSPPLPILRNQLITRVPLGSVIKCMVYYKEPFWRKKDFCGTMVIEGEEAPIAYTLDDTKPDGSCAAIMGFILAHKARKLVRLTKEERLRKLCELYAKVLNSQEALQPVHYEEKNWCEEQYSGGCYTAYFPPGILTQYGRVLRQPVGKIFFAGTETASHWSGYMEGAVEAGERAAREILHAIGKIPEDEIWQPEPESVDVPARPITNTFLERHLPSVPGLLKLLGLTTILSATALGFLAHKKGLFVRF

`COC(=O)/C=C/C=C/c1ccc2c(c1)OCO2` [METHYL PIPERATE] was tested, and the Ki [1] was 27.1 µM and the Ki [2] was 1.6 µM.
In the case of `O=C(/C=C/C=C/c1ccc2c(c1)OCO2)N1CCCCC1` [PIPERINE], the Ki [3] is reported as 49.3 µM, the Ki [4] is reported as 91.3 µM and the Ki [1] is reported as 19 µM. For the same compound, the Ki [2] was 3.19 µM.
